Laboratory results taken from US20210181109A1 (FUJIFILM Corporation, priority 2018, published 2021).
Like-named read-outs stand apart in the source and are kept apart here.

How the values were obtained:
[1] = NAL depletion percent, HPLC-UV detection (281 nm); details: Reference (UV method)
Protocol: (§1) 1) To a 50 mL vessel, 12.6 mg (±0.1 mg) of NAL is weighed; to this, a 25 mL measuring pipet is used to add 20 mL of 100 mmol/L phosphate buffer (pH: 10.2); and the content is gently stirred using a test tube mixture to achieve dissolution (2 mmol/L NAL solution). 2) To a 500 mL vessel, 149.5 mL of this buffer is added using a 50 mL measuring pipet; to this, 0.5 mL of the above-described 2 mmol/L NAL solution is added; and the content is mixed by inversion to achieve 300-fold dilution (6.667 μmol/L).
(§2) The test substance undiluted solution is defined as an “undiluted solution”, and used. Incidentally, this “undiluted solution” may be appropriately diluted to, for example, 1/10, 1/100, or 1/1000, using an appropriate solvent, and the resultant solution may be used.
(§3) Subsequently, the solution having the maximum dissolution concentration is defined as an “undiluted solution”, and tested. Incidentally, this “undiluted solution” may be appropriately diluted to, for example, 1/10, 1/100, or 1/1000, using an appropriate solvent, and the resultant solution may be used.
(§4) The test substance is prepared at 1 mmol/L in any of solvents that are water, acetonitrile, acetone, and a 5 mass % dimethyl sulfoxide (DMSO)/acetonitrile solution and used as a test substance solution. As the solvent, a solvent in which the test substance dissolves at 1 mmol/L is used; when the test substance is soluble in a plurality of solvents, the solvent is selected in the following order of decreasing precedence: water, acetonitrile, acetone, and 5 mass % DMSO/acetonitrile.
(§5) Test substance solutions are prepared on a 96-well plate (U96 PP-0.5 ML NATURAL, Thermo Fisher Scientific Inc. (NUNC)) mainly using a 12-channel pipette, and a reagent is added in accordance with the following formula.
(§6) Nucleophilic reagent (NAC and NAL): 150 μL
(§7) Test substance solution: 50 μL
(§8) The plate is tightly sealed using a plate sealing (Resistant embossed seal, SHIMADZU GLC Ltd.), and stirred using a plate shaker (Titramax 100, Heidolph Instruments GmbH & CO. KG). The plate is subjected to spinning down using a centrifuge, and then to incubation at 25° C., for 24 hours, in a light-shielded state.
(§9) After the incubation for 24 hours, the plate sealing is removed; to each sample, 50 µL of the reaction stopping solution is added to stop the reaction.
(§10) The HPLC measurement conditions for the nucleophilic reagents are as follows.
(§11) From the average values (each, n=3) of peak areas of the post-reaction unreacted NAC or NAL and the blank-test (after performing the reaction step without addition of the test substances) NAC or NAL, the following formula is used to calculate the depletion percent of NAC or NAL.
(§12) NAL depletion percent (% depletion)=[1−(Average value of peak areas of post-reaction unreacted NAL/Average value of peak areas of blank-test (after performing the reaction step without addition of the test substances) NAL)]×100
(§13) The average value of peak areas of post-reaction unreacted NAL is the average value of areas obtained by measuring three times post-reaction unreacted NAL. The average value of peak areas of blank-test (after performing the reaction step without addition of the test substances) NAL is the average value of areas obtained by measuring three times blank-test (after performing the reaction step without addition of the test substances) NAL.
(§14) The reactions were each performed on a 96-well plate, and the number of samples of each case was set to n=3. In addition, as controls, reaction solutions including the solvent alone were prepared. The reaction solutions were prepared so as to have a NAC or NAL concentration of 5 μmon. To the reaction solutions after the lapse of 24 hours, a trifluoroacetic acid (TFA) aqueous solution was added such that the final concentration became 0.5% (v/v) TFA. Subsequently, HPLC was performed for measurements by two detection methods that were light absorption detection using a photodiode array (PDA) detector, and fluorescence detection using a fluorescence detector.

[2] = cited from earlier work
[3] = NAC depletion percent, HPLC-fluorescence detection
Protocol: (§15) 1) To a 50 mL vessel, 11.6 mg (±0.1 mg) of NAC is weighed; to this, a 25 mL measuring pipet is used to add 20 mL of 100 mmol/L phosphate buffer (pH: 8.0); and the content is gently stirred using a test tube mixer to achieve dissolution (2 mmol/L). 2) To a 500 mL vessel, 149.5 mL of this buffer is added using a 50 mL measuring pipet; to this, 0.5 mL of the above-described 2 mmol/L NAC solution is added; and the content is mixed by inversion to achieve 300-fold dilution (6.667 μmon).
as §2, §3, §4, §5, §6, §7, §8, §9, §10, §11
(§16) NAC depletion percent (% depletion)=[1−(Average value of peak areas of post-reaction unreacted NAC/Average value of peak areas of blank-test (after performing the reaction step without addition of the test substances) NAC)]×100
(§17) The average value of peak areas of the post-reaction unreacted NAC is the average value of areas obtained by measuring three times post-reaction unreacted NAC. The average value of peak areas of blank-test (after performing the reaction step without addition of the test substances) NAC is the average value of areas obtained by measuring three times blank-test (after performing the reaction step without addition of the test substances) NAC.
as §14

[4] = NAC depletion percent, HPLC-UV detection (281 nm); details: Reference (UV method)
Protocol: as §15, §2, §3, §4, §5, §6, §7, §8, §9, §10, §11, §16, §17, §14

[5] = Average score of NAC and NAL depletion and prediction of skin allergenicity, UV method; details: for Average score: test substance solution 1 mmol/L
Protocol: (§18) The average value (Average Score) of NAC and NAL depletion percents is calculated. In the resultant value, the second decimal place is rounded off.
(§19) Average value (Average Score) of NAC and NAL depletion percents=(NAC depletion percent+NAL depletion percent)/2
(§20) The depletion percent of at least one of NAC or NAL or the average score of the depletion percents of NAC and NAL is calculated, and whether or not the test substances are “allergenic substances” or “non-allergenic substances” is determined:
(§21) (1) in a case of performing evaluation based on the average value of the depletion percent of NAC and the depletion percent of NAL,
(§22) In the following Tables, S represents as being an allergenic substance and NS represents as being a non-allergenic substance.

[6] = NAL depletion percent, HPLC-fluorescence detection
Protocol: as §1, §2, §3, §4, §5, §6, §7, §8, §9, §10, §11, §12, §13, §14

[7] = Average score of NAC and NAL depletion and prediction of skin allergenicity, fluorescence method; details: for Average score: test substance solution 1 mmol/L
Protocol: as §18, §19, §20, §21, §22

[8] = single substance, test substance solution 1 mmol/L
[9] = known values, LLNA-test-based classification, − for non-allergenic substances
[10] = single substance, test substance solution 1 mmol/L, fluorescence method
[11] = single substance, Reference (UV method), criterion average score […]
[12] = single substance, Reference (UV method)
[13] = single substance, fluorescence method, criterion average score […]
[14] = single substance, fluorescence method
[15] = Fluorescence method, non-allergenic substance
[16] = Reference (UV method), skin allergenicity prediction
[17] = Fluorescence method, skin allergenicity prediction

SMILES | NAL depletion (%) [1, 8] | EC3 (%) [2, 9] | NAC depletion (%) [3, 10] | NAC depletion (%) [4, 8] | Prediction result [5, 11] | Average score [5, 12] | NAL depletion (%) [6, 10] | Prediction result [7, 13] | Average score [7, 14] | EC3 (%) ([2]; in vivo) | Prediction result [5] | Prediction result [7] | NAL depletion (%) ([1]; non-allergenic substance) | NAC depletion (%) [3, 15] | NAC depletion (%) ([4]; non-allergenic substance) | Prediction result [5, 16] | NAL depletion (%) [6, 15] | Prediction result [7, 17]
CCCCCCCCCCCCCCCC(=O)Cl [Palmitoyl chloride] | 95.9% | 8.8% | 11.5% | 5.8% | S (S represents as being an allergenic substance) | 50.8% | 98.3% | S (S represents as being an allergenic substance) | 54.9% |  |  |  |  |  |  |  |  | 
O=CCc1ccccc1 [Phenylacetaldehyde] | 98.3% | 3% | 9.5% | 22.4% | S (S represents as being an allergenic substance) | 60.3% | 96.2% | S (S represents as being an allergenic substance) | 52.9% |  |  |  |  |  |  |  |  | 
CCCCCCC#CC(=O)OC [Methyl 2-nonynoate] | 1.4% | 2.5% | 12.4% | 15.0% | S (S represents as being an allergenic substance) | 8.2% | 3.2% | S (S represents as being an allergenic substance) | 7.8% |  |  |  |  |  |  |  |  | 
C=O [Formaldehyde] |  |  |  |  |  |  |  |  |  | 0.61% | S (key: S represents as being an allergenic substance; NS represents as being a non-allergenic substance) | S (key: S represents as being an allergenic substance; NS represents as being a non-allergenic substance) |  |  |  |  |  | 
Oc1cccc(O)c1 [Resorcinol] | 2.2% |  | 0.8% | 4.0% | NS (NS represents as being a non-allergenic substance) | 3.1% | 1.6% | NS (NS represents as being a non-allergenic substance) | 1.2% |  |  |  |  |  |  |  |  | 
O=C(O)C(=O)O [Oxalic acid] | 3.6% |  | 0.0% | 0.0% |  | 1.8% | 0.3% |  | 0.1% |  |  |  |  |  |  |  |  | 
CC(=O)C(C)=O [2,3-Butanedione] | 25.5% |  | 45.2% | 41.2% |  | 33.4% | 17.7% |  | 31.4% |  |  |  |  |  |  |  |  | 
CC(O)C(=O)O (stereo not drawn) [Lactic acid] |  |  |  |  |  |  |  |  |  |  |  |  | 2.8% | 1.4% | 0.0% | NS (NS represents as being a non-allergenic substance) | 0.0% | NS (NS represents as being a non-allergenic substance)
O=C(O)c1ccc(O)cc1 [4-Hydroxybenzoic acid] |  |  |  |  |  |  |  |  |  |  |  |  | −1.4% | 2.9% | 0.0% | NS (NS represents as being a non-allergenic substance) | 0.1% | NS (NS represents as being a non-allergenic substance)
C=C(C)C(=O)OCC(C)O (stereo not drawn) [2-Hydroxypropyl methacrylate] |  |  |  |  |  |  |  |  |  |  |  |  | 2.2% | 2.0% | 2.4% | NS (NS represents as being a non-allergenic substance) | 0.2% | NS (NS represents as being a non-allergenic substance)
COC(=O)c1ccccc1O [Methyl salicylate] |  |  |  |  |  |  |  |  |  |  |  |  | 0.4% | 0.3% | 0.0% | NS (NS represents as being a non-allergenic substance) | 0.0% | NS (NS represents as being a non-allergenic substance)
CCCCO [1-Butanol] |  |  |  |  |  |  |  |  |  | − |  |  | 0.8% | 2.1% | 0.1% |  | 0.3% | 
CCCCCCCC(=O)O [Octanoic acid] |  |  |  |  |  |  |  |  |  |  |  |  | 1.2% | 0.0% | 0.0% | NS (NS represents as being a non-allergenic substance) | 0.0% | NS (NS represents as being a non-allergenic substance)
CCCOC(=O)c1ccc(O)cc1 [Propylparaben] |  |  |  |  |  |  |  |  |  | − |  |  | 1.9% | 0.5% | 0.1% |  | 4.4% | 
